Results published in patent US20110143948A1, “MOLECULAR SIGNATURES AND BIOMARKERS ASSOCIATED WITH MELANOMA AND METHODS OF USE THEREOF” (priority 2008, published 2011).

System: ncRNAs (SEQ ID NO 28-89)
Test: ncRNA arrays of melanocytes, keratinocytes, normal skin, melanoma cell lines and patient samples
Design: species or system human
Conditions: for ncRNA array expression, patient 2: melanoma patient 2 sample compared to normal skin; for ncRNA array expression, patient 3: melanoma patient 3 sample compared to normal skin; for ncRNA array expression, patient 4: melanoma patient 4 sample compared to normal skin; for ncRNA array expression, patient 5: melanoma patient 5 sample compared to normal skin; for ncRNA array expression, patient 6: melanoma patient 6 sample compared to normal skin; for ncRNA array expression, patient 7: melanoma patient 7 sample compared to normal skin; for ncRNA array expression, patient 8: melanoma patient 8 sample compared to normal skin; for ncRNA array expression, patient 9: melanoma patient 9 sample compared to normal skin; for ncRNA array expression, patient 10: melanoma patient 10 sample compared to normal skin; for ncRNA array expression, patient 19: melanoma patient 19 sample compared to normal skin; for ncRNA array expression, patient 20: melanoma patient 20 sample compared to normal skin; for ncRNA array expression, patient 21: melanoma patient 21 sample compared to normal skin; for ncRNA array expression, patient 22: melanoma patient 22 sample compared to normal skin; for ncRNA array expression, patient 23: melanoma patient 23 sample compared to normal skin; for ncRNA array expression, patient 24: melanoma patient 24 sample compared to normal skin; for ncRNA array expression, patient 25: melanoma patient 25 sample compared to normal skin; for ncRNA array expression, patient 26: melanoma patient 26 sample compared to normal skin; for ncRNA array expression, patient 27: melanoma patient 27 sample compared to normal skin; for ncRNA array expression, patient 28: melanoma patient 28 sample compared to normal skin; for ncRNA array expression, patient 29: melanoma patient 29 sample compared to normal skin; for ncRNA array expression, patient 30: melanoma patient 30 sample compared to normal skin
Procedure: An ncRNA array platform that contains over 10,000 putative (>200 nt) ncRNAs including most of the known ncRNAs in mouse and human was conducted to evaluate ncRNAs within melanoma. Lack of coding potential was estimated by an algorithm that scores various characteristics of protein-coding genes, including open reading frame length, synonymous/non-synonymous base substitution rates and similarity to known proteins. These arrays provide the first generation of tools designed to analyze the dynamic expression of a large subset of ncRNAs in human and mouse and to identify candidate genes for more detailed functional analysis. In addition to the ncRNA content, probes targeting mRNA content from RefSeq are also included, allowing discovery of coordinated expression with associated protein-coding genes. The result of these assays is a list of ncRNA genes (i.e. SEQ ID NO 28-89) and maps of their sequence boundaries. We have profiled total RNA isolated from melanocytes, keratinocytes, normal human skin, melanoma cell lines and melanoma patient samples to identify differentially expressed ncRNAs in cell lines and tissues. ncRNAs expression in all tested samples were compared to either melanocytes or normal skin. We have identified a group of ncRNAs that are specific for (a) melanocytes (b) Keratinocytes (c) Melanoma cell lines (d) Melanoma patients. […] Probe DNA sequences for this array include: AF086032 (SEQ ID NO 107) […] BC071821 (SEQ ID NO 108) […] C AK130193 (SEQ ID NO 109) […] AL109719 (SEQ ID NO 110) […] AF085888 (SEQ ID NO 111) […] T BC033879 (SEQ ID NO 112) […] AA AK024556 (SEQ ID NO 113) […] Probe nomenclature is standard genebank IDs given by NCBI and other organizations.
Keratinocytes specific signatures were subtracted and resultant ncRNAs were validated by qRT-PCR and Northern blots. Results point out the presence of a group of melanoma specific ncRNAs (i.e. SEQ ID NO 28-89).

Substance | ncRNA array expression, patient 2 | ncRNA array expression, patient 3 | ncRNA array expression, patient 4 | ncRNA array expression, patient 5 | ncRNA array expression, patient 6 | ncRNA array expression, patient 7 | ncRNA array expression, patient 8 | ncRNA array expression, patient 9 | ncRNA array expression, patient 10 | ncRNA array expression, patient 19 | ncRNA array expression, patient 20 | ncRNA array expression, patient 21 | ncRNA array expression, patient 22 | ncRNA array expression, patient 23 | ncRNA array expression, patient 24 | ncRNA array expression, patient 25 | ncRNA array expression, patient 26 | ncRNA array expression, patient 27 | ncRNA array expression, patient 28 | ncRNA array expression, patient 29 | further results
SEQ ID NO 33 (TATTGAATGTACACAAGTAATGATGGAGTTTGATTATATGGTTCATTTTCATTTATCCTA; DNA, backbone and methylation of C not given here; listed as Homo sapiens) | 0.6575 | 0.8123 | 3.512 | 0.6998 | 1.768 | 2.379 | 2.278 | 0.3136 | 1.984 | 1.068 | 1.404 | 1.613 | 0.8185 | −0.4072 | 3.016 | 1.628 | 2.999 | 3.593 | 2.24 | 2.111 | ncRNA array expression, patient 30: −0.2823
SEQ ID NO 34 (TTTTCTCTGCTTATTACCCTCCCTGTTTCCTCCTGGGCTGCCAACAACATATTATATTAC; listed as DNA, chemistry not given here; listed as Homo sapiens) | 2.375 | 2.833 | 2.701 | 2.722 | 2.606 | 3.005 | 2.354 | 1.958 | −1.787 | 2.243 | 3.044 | 2.382 | 2.727 | 2.643 | 1.817 | 2.013 | 1.687 | 2.945 | 2.485 | 2.129 | ncRNA array expression, patient 30: −0.1242
SEQ ID NO 35 (GTTTCCATTGAAGAATATTACGCTCGGGGACAAGCCAGGTGCACGACCAAAAATTTAAAA; DNA, backbone and methylation of C not given here; listed as Homo sapiens) | 1.513 | 3.848 | 3.278 | 2.521 | 2.07 | 3.025 | 2.14 | −0.1931 | 3.606 | 0.9237 | 2.507 | 2.618 | 0.8167 | 2.729 | −2.783 | 1.774 | 3.301 | 3.86 | 4.108 | 3.127 | ncRNA array expression, patient 30: −0.8323
SEQ ID NO 36 (TATTTGTGACTAACTGTATAACAGGTTATTTTAGTTTCTGTTCTGTGGGAAGTGTAAAGC; listed as DNA, chemistry not given here; listed as Homo sapiens) | 3.977 | 3.577 | 4.181 | 4.05 | 3.52 | 4.601 | 4.36 | 3.565 | 2.818 | 3.798 | 4.669 | 3.909 | 3.164 | 2.96 | 3.815 | 5.084 | 4.401 | 4.909 | 4.878 | 4.381 | ncRNA array expression, patient 30: −1.698
SEQ ID NO 37 (ACGCACTGGGCGTTGAAGCAGTGCTTTCTGGATTAAATACGAAATACTGATGTCACAAGC; DNA, backbone and methylation of C not given here; listed as Homo sapiens) | 1.589 | 0.3993 | 0.7773 | 2.425 | −0.3494 | 1.933 | 1.302 | 2.619 | 3.899 | 4.51 | 0.9938 | 2.575 | 0.0988 | 1.771 | 4.312 | 3.471 | 2.31 | 0.5554 | 1.732 | 2.461 | ncRNA array expression, patient 30: −1.17
SEQ ID NO 38 (GTAAACAAGGTCTCACAAAAACAGCTGACCACACCATAAAATCACTGAGACCGAGCCTGC; listed as DNA, chemistry not given here; listed as Homo sapiens) | −1.1813 | −1.02 | −0.9275 | −1.288 | −1.615 | −1.64 | −1.244 | −1.183 | −0.784 | −0.7729 | −0.9285 | −1.068 | −0.7593 | −1.569 | −1.078 | −1.365 | −1.368 | −1.317 | −1.181 | −1.249 | ncRNA array expression, patient 30: 0.333
